Experimental data as given in patent publication US12403121B2, “Anticancer rocaglamide derivatives” (priority 2018, dated 2025).

Legend:
in vivo = assay: in vivo; design: species or system mice; conditions: mouse
Experimental: Mice were administered with a 5 mg/kg dose of Roc by intravenous (IV) or intraperitoneal injection (IP) or by oral gavage (PO). Blood samples were collected before and at multiple indicated time-points after dosing (n=3). Plasma samples were obtained by centrifugation and stored at −80° C. To measure plasma concentrations of Roc, a sensitive liquid chromatography coupled with tandem mass spectrometry detection (LC/MS-MS) method was developed. The reference compounds Roc (NSC326408) and pipernyl rocaglate (NSC784086) were provided by the NCI Developmental Therapeutics Program with pipernyl rocaglate used as the internal standard for quantitation. Plasma samples were processed by taking 100 μl of plasma and adding 300 μl of methanol containing 0.05 μM of internal standard. The samples were vortexed and centrifuged at 10,000×g for 10 min. The supernatant was collected and evaporated to dryness. Dried samples were reconstituted in 100 μl of 1:1 water:acetonitrile and centrifuges at 10,000×g for 3 min, followed by injecting 10 μl into an HPLC. Compounds of interest were separated on a Kinetex EVO C18 column (150×2.1 mm) with a flow rate of 0.25 ml/min. Mobile phase consisted of 80% ammonium formate buffer (1 g/L) and 20% acetonitrile at the start of the run, and a linear gradient to 10% ammonium formate/90% acetonitrile was applied over 14 min. Roc and the internal standard were identified by MS/MS using a Thema) Vantage TSQ run in positive ion mode. The transitions used were m/z 506 to m/z 352 (Roc) and m/z 570 to m/z 450 (internal standard). […] Samples found to be above 2.5 μM of Roc were reanalyzed after dilution with blank plasma. Absolute recoveries of Roc from plasma were to be >98%. AUC estimations were made manually using the trapezoidal method of integration.
To examine the oral bioavailability, PK studies were conducted to compare mice that had been dosed with Roc at 5 mg/kg via the IV, IP, or PO route, followed by measuring Roc concentrations in blood samples collected at various times post dosing. Two separate studies with three mice at each time point for each route of dosing were conducted. […] Areas under the plasma concentration-time curves (AUC0-7h) produced 245 μM min of exposure in the IV route and 142 μM min of exposure in the PO route. The concentrations of Roc appeared to more slowly decline in the plasma over 24 h (T1/2=2.4 hour) with the PO route compared to those dosed by IV route (T1/2=˜1.5 hour).

[1] = system: TC32 Ewing sarcoma, 143B osteosarcoma, and RD rhabdomyosarcoma cells; assay: Western blots of treated sarcoma cells; format: cell-based
Experimental: FIGS. 7A-7C provide images showing DDR and Roc reduce multiple signaling proteins important for the growth and survival of sarcoma cells. Lysates prepared from TC32 Ewing sarcoma (A), 143B osteosarcoma (B), and RD rhabdomyosarcoma (C) cells were treated 1 and 2 days with the indicated concentrations of DDR or Roc and analyzed by Western blotting for the expression of various oncogenic driver proteins. GAPDH was used as a loading control.
Subconfluent cells were treated with the indicated doses of Roc or DDR for 24-72 hours and then harvested in cell lysis buffer (Cell Signaling Technology) containing 1 mM phenylmethylsufonylfluoride and protease inhibitor cocktail (Sigma-Aldrich). The protein content in cleared lysates was quantitated using the microBCA assay (ThermoFisher). Equal amounts of protein were run in sodium dodecyl sulfate-polyacrylamide gels and electrotransferred onto Immobilon-FL PVDF membranes (Millipore). The antibodies used were directed against: MDR1/ABCB1 (#13978), insulin-like growth factor-1 receptor β subunit (IGF-1Rβ; #9750), AKT (#9272), ERK1/2 (#4695), glyceraldehyde-3-phosphate dehydrogenase (GAPDH; #5174), caspase-3 (#9662), caspase-7 (#9492), cleaved caspase-7 (#9491), poly(ADP-ribose) polymerase (PARP; #9532), cleaved PARP (#5625), and phospho-histone H2A.X (pH2A.X[Ser′^39]; #9718; all from Cell Signaling Technology), NKX2.2 (sc-514161), LSD1 (sc-136174), and survivin (sc-17779; Santa Cruz Biotechnology), and FLI1 (ab15289) and cleaved caspase-3 (CC3; ab32042; Abeam). Protein bands were detected using IRDye® infrared fluorescent dye-labeled secondary antibodies and scanning on an Odyssey CLx imaging system (LI-COR Biosciences) using the appropriate fluorescent channel at a resolution of 84 μm.
To further examine the molecular mechanisms underlying the antiproliferative effects of rocaglamides, the inventors treated TC32 Ewing sarcoma, 143B osteosarcoma, and RD rhabdomyosarcoma cells with 1- or 2-IC50 dose of DDR or rocaglamide for 1-2 days followed by Western blotting for several known drivers of cell survival and proliferation. […] They also observed reduction of the IGF-1Rβ levels in rocaglamide-treated MPNST cells. In addition, Roc and DDR decreased the levels of AKT, ERKs, cyclin D1 and survivin in treated TC32, 143B, and RD cells (FIG. 7). Intriguingly, the oncogenic fusion protein EWS-FLI1, which acts as an aberrant transcription factor in Ewing sarcoma, was not affected in Roc- and DDR-treated TC32 Ewing sarcoma cells (FIG. 7A). […] However, the expression of lysine demethylase 1 (LSD1), which modulates EWS-FLI1 transcriptional activity (Sankar et al., Oncogene, 32:5089-5100 (2013)), and NKX2.2, an EWS-FL11-regulated gene necessary for oncogenic transformation (Smith et al., Cancer Cell, 9:405-416 (2006)), were diminished by these rocaglamides in TC32 cells (FIG. 7A).

COc1ccc([C@@]23Oc4cc(OC)cc(OC)c4[C@]2(O)[C@H](O)[C@H](C(=O)N(C)C)[C@H]3c2ccccc2)cc1 [Roc, rocaglamide]
Area under the plasma concentration-time curve (AUC0-7h) (in vivo; iv, 5 mg/kg): 245 µM·min
half-life (in vivo; iv, 5 mg/kg): ~1.5 h
improvement of oral bioavailability over silvestrol (in vivo; po): > 25 fold
Area under the plasma concentration-time curve (AUC0-7h) (in vivo; po, 5 mg/kg): 142 µM·min
Cmax (in vivo; po, 5 mg/kg): ~800 nM
T1/2 (in vivo; po, 5 mg/kg): 2.4 h
bioavailability (in vivo; po, 5 mg/kg): ~50%
levels of the β subunit of IGF-1R ([1]; 1- or 2-IC50 dose, 1-2 days, all three sarcoma cell lines): reliably reduced
levels of AKT, ERKs, cyclin D1 and survivin ([1]; TC32, 143B, and RD cells, 1- or 2-IC50 dose, 1-2 days): decreased
EWS-FLI1 fusion protein level ([1]; TC32 Ewing sarcoma cells): not affected
expression of LSD1 and NKX2.2 ([1]; TC32 cells): diminished
